From US6277847A, “Herbicidal isoindolinonyl-and 3,4-dihydroisoquinolonyl-substituted heterocycles” (FMC Corporation, priority 2000, dated 2001) come the findings set out here.

Format in all cases: in vivo
Assay [1] relates to common cocklebur (Xanthium strumarium L.). The assay is described as follows: pre-emergence herbicidal activity, cocklebur. To be noted: 1 kg/Ha, about fourteen days, read-out: pre-emergence herbicidal activity (% control) XANPE. The procedure, abridged:
(§1)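 Seeds sown in flats of soil mix were sprayed pre-emergence with test compound in water/acetone at 1 kg/Ha. Flats were held about fourteen days beside untreated controls, then phytotoxicity was scored as percent control (0 = no effect, 100 = complete control).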

Assay [2] has as its system green foxtail (Setaria viridis). The assay can be described thus: post-emergence herbicidal activity, green foxtail. The conditions noted are these: 1 Kg/Ha, about fourteen days, read-out: post-emergence herbicidal activity (% control) SETVI. A digest of the protocol:
(§2)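 Seedlings were grown in soil flats to a suitable stage, then sprayed with test compound in water/acetone at 1 Kg/Ha. Treated plants were kept alongside untreated controls for about fourteen days and then scored for phytotoxicity as percent control, 0 being no effect and 100 complete control.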

Assay [3] deals with blackgrass (Aloepecurus myosuroides). The assay can be described thus: post-emergence herbicidal activity, blackgrass. To be noted: Alopecurus myosuroides, 1 Kg/Ha, about fourteen days, read-out: post-emergence herbicidal activity (% control) ALOMY. The protocol: This example sets forth the methods of herbicidal testing conducted on the specific compounds set forth below. Specifically, the compounds referenced below were tested for pre- and post-emergence herbicidal activity using a variety of crops and weeds. The test plants include, but are not limited to, soybean (Glycine max -- var. Winchester), field corn (Zea mays var. Pioneer 3732), wheat (Triticum aestivum var. Lew), morningglory (Ipomea lacunosa or Ipomea hederacea), velvetleaf (Abutilon theophrasti), green foxtail (Setaria viridis), Johnsongrass (Sorghum halepense), blackgrass (Aloepecurus myosuroides), common chickweed (Stellaria media), and common cocklebur (Xanthium strumarium L.).
In the post-emergence test, seeds of the plant species named above were planted in flats containing the appropriate soil mixture where they were maintained to allow the seeds to germinate. When the plants in these flats reached the proper stage of growth, flats for the pre-emergence tests were planted in a like manner. The flats containing the post-emergence and pre-emergence test plant species were then sprayed with an appropriately concentrated water/acetone solution of test compound. Once treated the flats were maintained, along with untreated controls, for about fourteen days. All treated plants were then examined for phytotoxicity, which was expressed as percent control where 0 is no effect and 100 is complete control. Effective rates of application for the compounds of the present invention range from 0.001 to 3 kg/ha, more likely from […] to 1 Kg/ha.
Herbicidal activity data at selected application rates are in Tables 4 and 5. The test compounds are identified by numbers correspond to those in Table 1.
SOY is soybean, WHT is wheat, CRN is corn, ABUTH is velvetleaf, IPOSS is
morningglory, STEME is chickweed, XANPE is cocklebur, ALOMY is blackgrass,
Rate of application of test compound is 1 Kg/Ha. The definitions as shown under Table 4 apply to Table 5.

For assay [4], the system named is soybean (Glycine max -- var. Winchester). The assay can be described thus: post-emergence herbicidal activity, soybean. To be noted: 1 Kg/Ha, about fourteen days, read-out: post-emergence herbicidal activity (% control) SOY. A digest of the protocol:
as §2

For assay [5] the test system is unchanged. The assay is described as follows: pre-emergence herbicidal activity, soybean. To be noted: 1 kg/Ha, about fourteen days, read-out: pre-emergence herbicidal activity (% control) SOY. The procedure, abridged: as §1
Assay [6] concerns field corn (Zea mays var. Pioneer 3732). The assay can be described thus: pre-emergence herbicidal activity, corn. To be noted: 1 kg/Ha, about fourteen days, read-out: pre-emergence herbicidal activity (% control) CRN. A digest of the protocol: as §1
The test system of assay [7] is common chickweed (Stellaria media). The assay is described as follows: pre-emergence herbicidal activity, chickweed. To be noted: 1 kg/Ha, about fourteen days, read-out: pre-emergence herbicidal activity (% control) STEME. The procedure, abridged: as §1
For assay [8], the system named is velvetleaf (Abutilon theophrasti). The assay can be described thus: pre-emergence herbicidal activity, velvetleaf. To be noted: 1 kg/Ha, about fourteen days, read-out: pre-emergence herbicidal activity (% control) ABUTH. A digest of the protocol: as §1
In assay [9] the test system is morningglory (Ipomea lacunosa or Ipomea hederacea). The assay is described as follows: post-emergence herbicidal activity, morningglory. The conditions noted are these: Ipomoea, 1 Kg/Ha, about fourteen days, read-out: post-emergence herbicidal activity (% control) IPOSS. The procedure, abridged: as §2
Assay [10] concerns wheat (Triticum aestivum var. Lew). The assay is described as follows: pre-emergence herbicidal activity, wheat. To be noted: 1 kg/Ha, about fourteen days, read-out: pre-emergence herbicidal activity (% control) WHT. The procedure, abridged: as §1
Assay [11] relates to green foxtail (Setaria viridis). The assay can be described thus: pre-emergence herbicidal activity, green foxtail. The conditions noted are these: 1 kg/Ha, about fourteen days, read-out: pre-emergence herbicidal activity (% control) SETVI. A digest of the protocol: as §1
Assay [12] relates to wheat (Triticum aestivum var. Lew). The assay can be described thus: post-emergence herbicidal activity, wheat. To be noted: 1 Kg/Ha, about fourteen days, read-out: post-emergence herbicidal activity (% control) WHT. A digest of the protocol:
as §2

The subject of assay [13] is velvetleaf (Abutilon theophrasti). The assay can be described thus: post-emergence herbicidal activity, velvetleaf. The conditions noted are these: 1 Kg/Ha, about fourteen days, read-out: post-emergence herbicidal activity (% control) ABUTH. A digest of the protocol: as §2
In assay [14] the test system is common chickweed (Stellaria media). The assay is described as follows: post-emergence herbicidal activity, chickweed. To be noted: 1 Kg/Ha, about fourteen days, read-out: post-emergence herbicidal activity (% control) STEME. The procedure, abridged:
as §2

Assay [15] concerns common cocklebur (Xanthium strumarium L.). The assay is described as follows: post-emergence herbicidal activity, cocklebur. The conditions noted are these: 1 Kg/Ha, about fourteen days, read-out: post-emergence herbicidal activity (% control) XANPE. A digest of the protocol: as §2
The test system of assay [16] is blackgrass (Aloepecurus myosuroides). The assay is described as follows: pre-emergence herbicidal activity, blackgrass. To be noted: Alopecurus myosuroides, 1 kg/Ha, about fourteen days, read-out: pre-emergence herbicidal activity (% control) ALOMY. The procedure, abridged:
as §1

Assay [17] concerns field corn (Zea mays var. Pioneer 3732). The assay is described as follows: post-emergence herbicidal activity, corn. To be noted: 1 Kg/Ha, about fourteen days, read-out: post-emergence herbicidal activity (% control) CRN. A digest of the protocol: as §2
Assay [18] concerns morningglory (Ipomea lacunosa or Ipomea hederacea). The assay can be described thus: pre-emergence herbicidal activity, morningglory. To be noted: Ipomoea, 1 kg/Ha, about fourteen days, read-out: pre-emergence herbicidal activity (% control) IPOSS. The procedure, abridged: as §1

On to `C#CCn1c(C(F)(F)F)cc(=O)n(-c2ccc(Cl)c3c2CN(C(C)C)C3=O)c1=O` [Compound 75], for which the activity at 1000 g/ha in assay [1] came to 95%; in assay [2], 45%; in assay [3], 100%; in assay [4], 60%; in assay [5], 100%; in [6] it was 95%. Further, the activity at 1000 g/ha in [7] worked out at 100%; in assay [8], 100%; in assay [9], 50%; in assay [10], 100%; in assay [11], 100%; in assay [12], 70%. Besides, the activity at 1000 g/ha in assay [13] amounted to 100%; in assay [14], 100%; in [15], 85%; in assay [16] it was 95%; in [17], 50%; in [18], 100%.
Regarding `Cn1c(C(F)(F)F)cc(=O)n(-c2ccc(Cl)c3c2CN(C2CCCC2)C3=O)c1=O` [Compound 76], the activity at 1000 g/ha in [1] was determined as 100%; in assay [2], 100%; in [3] it was 100%; in [4] it was 95%; in assay [5], 100%; in [6], 95%. The activity at 1000 g/ha in assay [7] stood at 100%; in assay [8], 100%; in [9] it was 100%; in assay [10], 80%; in [11] it was 100%; in assay [12] it was 100%. The activity at 1000 g/ha in [13] turned out to be 100%; in [14] it was 100%; in assay [15], 100%; in assay [16] it was 90%; in assay [17], 100%; in [18], 100%.
Consider `Cn1c(C(F)(F)F)cc(=O)n(-c2ccc(Cl)c3c2CN(C2CCCCC2)C3=O)c1=O` [Compound 77], for which the activity at 1000 g/ha is 100% in assay [1]; 100% in assay [2]; 100% in assay [3]; 95% in assay [4]; 100% in assay [5]; 90% in assay [6]. Moreover, the activity at 1000 g/ha came to 100% in assay [7]; 100% in assay [8]; 100% in [9]; 80% in assay [10]; 100% in assay [11]; 80% in [12]. For the same compound, the activity at 1000 g/ha in assay [13] was determined as 100%; in assay [14], 100%; in [15], 100%; in assay [16] it was 95%; in assay [17] it was 100%; in assay [18] it was 100%.
Turning to `Cn1c(C(F)(F)F)cc(=O)n(-c2ccc(Cl)c3c2CN(CCF)C3=O)c1=O` [Compound 78], the activity at 1000 g/ha in [1], in assay [2], in [3], in [4], in assay [5] and in assay [6] was 100% each time. Besides, the activity at 1000 g/ha in assay [7], in [8], in [9], in [10], in assay [11] and in [12] was 100% each time. Also, the activity at 1000 g/ha in assay [13], in [14], in assay [15], in [16], in [17] and in assay [18] was 100% each time.
As to `C=CCn1c(C(F)(F)F)cc(=O)n(-c2ccc(Cl)c3c2CN(C(C)C)C3=O)c1=O` [Compound 80], the activity at 1000 g/ha in assay [1] came out at 40%; in assay [2] it was 80%; in [3] it was 65%; in [4] it was 85%; in assay [5], 70%; in assay [6] it was 70%. Besides, the activity at 1000 g/ha in assay [7] was 100%; in assay [8] it was 100%; in assay [9], 30%; in [10], 80%; in [11], 95%; in [12] it was 50%. Further, the activity at 1000 g/ha in [13] was found to be 95%; in assay [14] it was 100%; in assay [15], 40%; in assay [16], 80%; in assay [17] it was 75%; in assay [18], 80%.
Regarding `CC(C)N1Cc2c(-n3c(=O)cc(C(F)(F)F)n(C)c3=O)ccc(Br)c2C1=O` [Compound 81], the activity at 1000 g/ha in [1], in [2], in assay [3], in [4], in [5] and in [6] was 100% each time. Moreover, the activity at 1000 g/ha in assay [7], in assay [8], in [9], in assay [10], in [11] and in assay [12] was 100% in each case. For the same compound, the activity at 1000 g/ha in [13], in assay [14], in assay [15], in assay [16], in assay [17] and in [18] was 100% each time.
On to `CC(C)N1Cc2c(c(Cl)cc(Cl)c2N2C(=O)C3=C(CCCC3)C2=O)C1=O` [Compound 82, 1-[5,7-dichloro-2-(1-methylethyl)isoindolin-1-on-4-yl]-3,4,5,6-tetrahydrophthalimide], for which the activity at 1000 g/ha in assay [1] stood at 95%; in assay [2], 100%; in [3] it was 100%; in assay [4], 60%; in assay [5], 70%; in assay [6], 80%. Besides, the activity at 1000 g/ha turned out to be 100% in assay [7]; 100% in assay [8]; 95% in assay [9]; 60% in [10]; 100% in assay [11]; 40% in [12]. Moreover, the activity at 1000 g/ha in [13] came to 100%; in assay [14], 85%; in assay [15], 100%; in assay [16], 70%; in assay [17] it was 65%; in assay [18], 100%.
